Read-outs that look alike come from different tables or passages of the source.
Legend:
[1] = Liver triphosphate after a single oral dose in cynomolgus monkeys; assay type: in vivo
Protocol: For Compound 2b, isomer 1, a single oral dose at 10 mg/kg in PEG 200 (dose volume 3 mL/kg) was administered to three cynomolgus monkeys. One Untreated animal was used for the collection of control liver. Terminal liver samples were collected from three animals at 6 hours post dose.

[2] = Cytotoxicity evaluation, CellTiter-Blue Cell Viability Assay; assay type: cell-based; details: human, Zluc cells, read-out: HCV Replicon CC50
Protocol: (§1) For cytotoxicity evaluation, Zluc cells were treated with test compound as described herein, and cell viability was monitored using the CellTiter-Blue Cell Viability Assay (Promega) by adding 20 μL of the assay solution to each well. The plates were then incubated at 37° C./5% CO2 for at least 3 hours.

[3] = CD-1 mice, liver triphosphate, normalised to 1 μmol/kg; for Ms Liver TP AUC (pmol · hr/g at 1 μmol/kg) following a single 2 mg/kg dose: single oral 2 mg/kg dose
Protocol: A single oral dose of test compound at 10 mg/kg and/or 2 mg/kg in PEG 200 (dose volume 5 mL/kg) was administered to nine CD-1 male mice. Five untreated animals were used for the collection of control plasma and liver. Terminal plasma and liver samples were collected from three animals per time point at 4, 12 and 24 hours post dose. Liver specimens were collected from all animals immediately after the incision. Freezing forceps stored in liquid nitrogen were used to freeze the liver before excision. Only liver samples were analyzed for triphosphate levels.
Liver samples were analyzed for the active species nucleoside triphosphate by LC-MS/MS. The triphosphate levels were assayed by homogenizing (on ice) a known weight of mouse liver with 4× volume of 0.95 M trichloroacetic acid (TCA) in water. Internal standard solution was added to the homogenate and mixed. Sample homogenates were centrifuged at 16.1 krpm for 5 minutes. Supernatants were transferred to 96 well plates and injected onto the LC-MS/MS system. The samples were chromatographed on a Luna NH2 column using a gradient system of ammonium acetate (1 mM to 20 mM and pH 8.0 to pH 10.0) in water and acetonitrile (70:30). The analyte was detected and quantified by tandem mass spectrometry using the analyte specific MRM transition on an API4000 equipped with a Turbo Ionspray® interface.

[4] = test system: HCV genotype 1b replicon; test: HCV Replicon Assay (Zluc, luciferase); assay type: cell-based; details: Zluc cells (Huh-7-derived), 72 hours of incubation
Protocol: Huh-7-derived cell line (Zluc) that harbors an HCV genotype 1b replicon and a luciferase reporter gene was grown in Dulbecco's Modified Eagle Medium (DMEM) supplemented with 10% fetal bovine serum, 2 mM GlutaMAX, 1% MEM nonessential amino acids, 100 IU/mL penicillin, 100 μg/mL streptomycin, and 0.5 mg/mL Geneticin® (G418). For dose response testing the cells were seeded in 96-well plates at 7.5×10^3 cells per well in a volume of 50 μL, and incubated at 37° C./5% CO2. Drug solutions were made up freshly in Huh-7 media as 2× stocks. Ten additional 5-fold dilutions were prepared from these stocks in DMEM without G418. At least three hours after Zluc cells were seeded, drug treatment was initiated by adding 50 μL of drug dilutions to the plates in duplicate. Final concentrations of drug ranged from 100 μM to […]. Cells were then incubated at 37° C./5% CO2. Alternatively, compounds were tested at two concentrations (1 μM and 10 μM). […] For this, media was removed from the plates via gentle tapping. Fifty microliters of ONE-glo luciferase assay reagent was added to each well. The plates were shaken gently for 3 min at room temperature and luminescence was measured on a Victor^3 V 1420 multilabel counter (Perkin Elmer) with a 1 second read time using a 700 nm cut-off filter. The EC50 values were calculated from dose response curves from the resulting best-fit equations determined by Microsoft Excel and XLfit 4.1 software. When screening at two fixed concentrations, the results were expressed as % inhibition at 1 μM and 10 μM.

[5] = test system: Zluc cells; test: Cytotoxicity evaluation, CellTiter-Blue Cell Viability Assay; assay type: cell-based; details: read-out: HCV Replicon CC50
Protocol: as §1

[6] = target: T1, wild-type HCV genotype 1b NS5B protein (recombinant HCV polymerase) (Hepatitis C virus genotype 1b, UniProt Q9WMX2); test: HCV Polymerase Enzyme Assay, wild-type; assay type: biochemical
T1 construct: HCV genotype 1b NS5B protein were used to generate recombinant HCV polymerases (with a deletion of the 21 carboxy terminal amino acids); made in house
Source text: (§2) Test compounds in the form of nucleoside triphosphates were examined for inhibitory activity against purified HCV polymerase in a standard assay. Bacterial expression constructs encoding the approximately 65 kDa HCV genotype 1b NS5B protein were used to generate recombinant HCV polymerases (with a deletion of the 21 carboxy terminal amino acids). Both the wild-type genotype 1b protein and protein containing the S282T mutation were expressed and purified for use in the enzymatic activity assay.
(§3) The enzymatic activity assay measured the inhibitory effect of increasing concentrations of test compound on the incorporation of α-[^33P]-labeled nucleotide into trichloroacetic acid-precipitable material. Recombinant polymerase and synthetic RNA template were combined in reaction buffer containing ribonucleoside triphosphates, α-[^33P]-labeled nucleotide and eight concentrations of test compound in three-fold dilutions. Reactions were incubated for two hours at 30° C.
(§4) Reactions were terminated by the addition of ice-cold trichloroacetic acid and sodium pyrophosphate to promote precipitation of newly-synthesized ribonucleic acid. Precipitable material from the reactions was collected by filtration onto 96-well filter plates, washed extensively with water, and quantified by liquid scintillation.
(§5) The inhibitory activity of test compounds was determined by fitting results to dose-response curves using XLfit software.

[7] = target: T2, HCV genotype 1b NS5B protein containing the S282T mutation (Hepatitis C virus genotype 1b, UniProt Q9WMX2, S2701T); test: HCV Polymerase Enzyme Assay, S282T; assay type: biochemical; details: nucleoside triphosphates; genotype 1b NS5B with S282T mutation
T2 construct: HCV genotype 1b NS5B protein were used to generate recombinant HCV polymerases (with a deletion of the 21 carboxy terminal amino acids); made in house
Source text: as §2
as §3, with “Reactions were incubated for two hours at 30° C.” left out
as §4, §5

[8] = read-out: Wild-Type IC50, nucleoside triphosphates, wild-type genotype 1b NS5B

In the case of CC(C)OC(=O)[C@H](C)NP(=O)(OC[C@@]1(F)O[C@@H](n2ccc(=O)[nH]c2=O)[C@H](O)[C@@H]1O)Oc1ccccc1 (single isomer, unassigned) [Compound 2b Diastereomer 1], the “Nucleoside triphosphate in Liver C6 (pmol/g) at 1 μmol/kg” value ([1]; 6 hr post dose, normalised to 1 μmol/kg) is reported as “+ (+ ≦ 10 pmol/g)”, the “Nucleoside triphosphate in Liver C6 (pmol/g) at 10 mg/kg” value ([1]; single oral 10 mg/kg, concentration at 6 hr post dose) is reported as “++++ (100 pmol/g < ++++ ≦ 160 pmol/g)” and the CC50 [2] is reported as over 50000 nM. For the same compound, the “Ms Liver TP AUC (pmol · hr/g at 1 μmol/kg) following a single 2 mg/kg dose” value [3] was “+++++ (1600 < +++++)”, the “Ms Liver TP AUC (pmol · hr/g at 1 μmol/kg) following a single 10 mg/kg dose” value ([3]; single oral 10 mg/kg dose) was “+++++ (1600 < +++++)” and the EC50 ([4]; listed as 2b Diastereomer 1) was over 10000 nM.

With CC(C)OC(=O)[C@H](C)NP(=O)(OC[C@@]1(F)O[C@@H](n2ccc(=O)[nH]c2=O)[C@H](O)[C@@H]1O)Oc1ccccc1 (single isomer, unassigned) [Compound 2b Diastereomer 2] the CC50 [5] was over 50000 nM, the “Ms Liver TP AUC (pmol · hr/g at 1 μmol/kg) following a single 2 mg/kg dose” value [3] was “+++++ (1600 < +++++)” and the EC50 ([4]; listed as 2b Diastereomer 2) was 1000 to 10000 nM.

CC(C)OC(=O)[C@H](C)NP(=O)(OC[C@@]1(F)O[C@@H](n2cnc3c(=O)[nH]c(N)nc32)[C@@H](O)C1O)Oc1ccccc1 (single isomer, unassigned) [Compound 3b Diastereomer 2] gave a CC50 [2] of over 50000 nM and an EC50 ([4]; Hepatitis C virus, 72 h) of 250 to 1000 nM.

Compound C[C@]1(O)[C@H](n2cc(Br)c(=O)[nH]c2=O)O[C@](F)(COP(=O)(O)OP(=O)(O)OP(=O)(O)O)[C@H]1O [Compound 101] has an IC50 [6] of 1000 to 10000 nM.

For O=c1ccn(C2O[C@](F)(COP(=O)(O)OP(=O)(O)OP(=O)(O)O)[C@@H](O)[C@H]2O)c(=O)[nH]1 (stereo partly shown) [Compound 102], the IC50 [6, 8] was 250 to 1000 nM and the IC50 [7] was under 250 nM.

Nc1nc2c(ncn2[C@@H]2O[C@](F)(COP(=O)(O)OP(=O)(O)OP(=O)(O)O)[C@@H](O)[C@H]2O)c(=O)[nH]1 [Compound 103] gave an IC50 [6] of under 250 nM and an IC50 [7] of under 250 nM.

Work on O=c1[nH]c(=O)n([C@@H]2O[C@](F)(COP(=O)(O)OP(=O)(O)OP(=O)(O)O)[C@@H](O)[C@H]2O)cc1Br [Compound 104] yielded an IC50 [6] of 1000 to 10000 nM.

For Nc1ccn(C2O[C@](F)(COP(=O)(O)OP(=O)(O)OP(=O)(O)O)[C@@H](O)[C@H]2O)c(=O)n1 (stereo partly shown) [Compound 105], the IC50 [6, 8] was 250 to 1000 nM.

In the case of Nc1ncnc2c1ncn2[C@@H]1O[C@](F)(COP(=O)(O)OP(=O)(O)OP(=O)(O)O)[C@@H](O)[C@H]1O [Compound 106], the IC50 [6] is reported as over 10000 nM.
